According to patent US12012412B2, “Solid forms of pyrazolo[3,4-d]pyrimidine compounds” (Pfizer Inc., priority 2021, dated 2024):
≈ marks a conversion by molar mass, not a printed value.

What was measured:
Assay type in all cases: physicochemical
[1] = Particle size of batches of Solid Form A; conditions: batches of Solid Form A, milled or unmilled per batch
Excerpt: Primary particles from below 100 μm to around 500 μm in size, with soft agglomerates up to several millimeters, were observed. The D[4,3] of this material was 195 μm. This material was subsequently milled, to give far fewer large particles and an overall much smaller average primary particle size, giving a D[4,3] of 49.5 μm. See Table 8 for a comparison of particle size properties of various batches.

[2] = True density of Solid Form A; conditions: lots of Solid Form A; A2 and A9 unmilled, A3 and A6/A7 milled
[3] = Mechanical properties of batches of Solid Form A; conditions: lots of Solid Form A; A2 and A9 unmilled, A3 and A6/A7 milled
[4] = Solubility of Solid Form A and amorphous Compound X in various solvents at room temperature

CC1CN(Cc2ncccn2)CC1c1nc2c(cnn2C2CCOCC2)c(=O)[nH]1 (stereo not drawn) [A5]
Particle size D[4, 3] [1]: 89.2 μm | Particle size D[v, 0.1] [1]: 6.86 µm | Particle size D[v, 0.9] [1]: 197 µm

CC1CN(Cc2ncccn2)CC1c1nc2c(cnn2C2CCOCC2)c(=O)[nH]1 (stereo not drawn) [A2]
True density (g/cm3), Value [2]: 1.28 g/cm3 | Brittle fracture index, Rating [3]: Low | Brittle fracture index, Value [3]: 0.0486 | Brittle/viscoelastic bonding index (x105), Value [3]: 2.61 | Brittle/viscoelastic bonding index, Rating [3]: Poor | Compression stress (MPa), Value [3]: 58.8 MPa | Compression stress, Rating [3]: Moderate | Compromised Tensile strength (MPa), Value [3]: 0.274 MPa | Solid fraction, Value [3]: 0.87 | Tensile strength (MPa), Value [3]: 0.3 MPa | Tensile strength, Rating [3]: Low | Particle size D[4, 3] [1]: 144 μm | Particle size D[v, 0.1] [1]: 45.6 µm | Particle size D[v, 0.9] [1]: 247 µm

CC1CN(Cc2ncccn2)CC1c1nc2c(cnn2C2CCOCC2)c(=O)[nH]1 (stereo not drawn) [A10]
Particle size D[4, 3] [1]: 49.5 μm | Particle size D[v, 0.1] [1]: 3.29 µm | Particle size D[v, 0.9] [1]: 129 µm

CC1CN(Cc2ncccn2)CC1c1nc2c(cnn2C2CCOCC2)c(=O)[nH]1 (stereo not drawn) [A6]
Particle size D[4, 3] [1]: 78.6 μm | Particle size D[v, 0.1] [1]: 5.89 µm | Particle size D[v, 0.9] [1]: 179 µm | Particle size D[4, 3] ([1]; listed as A7): 85.1 μm | Particle size D[v, 0.1] ([1]; listed as A7): 6.17 µm | Particle size D[v, 0.9] ([1]; listed as A7): 191 µm

CC1CN(Cc2ncccn2)CC1c1nc2c(cnn2C2CCOCC2)c(=O)[nH]1 (stereo not drawn) [A9]
True density (g/cm3), Value [2]: 1.29 g/cm3 | Brittle fracture index, Rating [3]: Very low | Brittle fracture index, Value [3]: −0.077 | Brittle/viscoelastic bonding index (x105), Value [3]: 1.95 | Brittle/viscoelastic bonding index, Rating [3]: Poor | Compression stress (MPa), Value [3]: 52.5 MPa | Compression stress, Rating [3]: Moderate | Compromised Tensile strength (MPa), Value [3]: 0.302 MPa | Dynamic indentation hardness (MPa), Value [3]: 63.6 MPa | Dynamic indentation hardness [ductility rating], Rating [3]: High | Solid fraction, Value [3]: 0.85 | Tensile strength (MPa), Value [3]: 0.255 MPa | Tensile strength, Rating [3]: Very low | Worst case bonding index (x102), Value [3]: 0.401 | Worst case bonding index, Rating [3]: Moderate | Particle size D[4, 3] [1]: 195 μm | Particle size D[v, 0.1] [1]: 20.6 µm | Particle size D[v, 0.9] [1]: 362 µm

CC1CN(Cc2ncccn2)CC1c1nc2c(cnn2C2CCOCC2)c(=O)[nH]1 (stereo not drawn) [A4]
Particle size D[4, 3] [1]: 24.1 μm | Particle size D[v, 0.1] [1]: 4.39 µm | Particle size D[v, 0.9] [1]: 52.5 µm

C[C@@H]1CN(Cc2ncccn2)C[C@H]1c1nc2c(cnn2C2CCOCC2)c(=O)[nH]1 [amorphous Compound X, 6-((3S,4S)-4-methyl-1-(pyrimidin-2-ylmethyl)pyrrolidin-3-yl)-1-(tetrahydro-2H-pyran-4-yl)-1,5-dihydro-4H-pyrazolo[3,4-d]pyrimidin-4-one]
Solubility (mg/ml) ([4]; 1,2-Xylene): 19.9 mg/mL (≈ 50.3 mM) | Solubility (mmol) ([4]; 1,2-Xylene): 50 mmol | Solubility (mmol) ([4]; Acetone): >202 mmol | Solubility (mg/ml) ([4]; Chloroform): >92.3 mg/mL | Solubility (mmol) ([4]; Chloroform): >233 mmol | Solubility (mg/ml) ([4]; Dioxane): 27.9 mg/mL (≈ 70.5 mM) | Solubility (mmol) ([4]; Dioxane): 71 mmol | Solubility (mg/ml) ([4]; EtOAc): 20.6 mg/mL (≈ 52.1 mM) | Solubility (mmol) ([4]; EtOAc): 52 mmol | Solubility (mg/ml) ([4]; EtOH): >98.6 mg/mL | Solubility (mmol) ([4]; EtOH): >249 mmol | Solubility (mg/ml) ([4]; Glyme (1,2-Dimethoxyethane)): >113.2 mg/mL | Solubility (mmol) ([4]; Glyme (1,2-Dimethoxyethane)): >286 mmol | Solubility (mg/ml) ([4]; H2O (Water)): 64.8 mg/mL (≈ 164 mM) | Solubility (mmol) ([4]; H2O (Water)): 164 mmol | Solubility (mg/ml) ([4]; H2O-EtOH (Water/EtOH)): >26.8 mg/mL | Solubility (mmol) ([4]; H2O-EtOH (Water/EtOH)): >68 mmol | Solubility (mg/ml) ([4]; H2O-MeCN (Water/MeCN)): >75.6 mg/mL | Solubility (mmol) ([4]; H2O-MeCN (Water/MeCN)): >191 mmol | Solubility (mg/ml) ([4]; H2O-MeOH (Water/MeOH)): >42.5 mg/mL | Solubility (mmol) ([4]; H2O-MeOH (Water/MeOH)): >107 mmol | Solubility (mg/ml) ([4]; H2O-acetone (Water/acetone)): >130.3 mg/mL | Solubility (mmol) ([4]; H2O-acetone (Water/acetone)): >329 mmol | Solubility (mg/ml) ([4]; Heptane): 0.7 mg/mL (≈ 1.77 mM) | Solubility (mmol) ([4]; Heptane): 2 mmol | Solubility (mg/ml) ([4]; IPA): >85.9 mg/mL | Solubility (mmol) ([4]; IPA): >217 mmol | Solubility (mg/ml) ([4]; MTBE): 11.2 mg/mL (≈ 28.3 mM) | Solubility (mmol) ([4]; MTBE): 28 mmol | Solubility (mg/ml) ([4]; MeCN): >117.3 mg/mL | Solubility (mmol) ([4]; MeCN): >297 mmol | Solubility (mg/ml) ([4]; MeOH): >90.2 mg/mL | Solubility (mmol) ([4]; MeOH): >228 mmol | Solubility (mg/ml) ([4]; Nitromethane): >70.2 mg/mL | Solubility (mmol) ([4]; Nitromethane): >178 mmol | Solubility (mg/ml) ([4]; THF): 81.5 mg/mL (≈ 206 mM) | Solubility (mmol) ([4]; THF): 206 mmol | Solubility (mg/ml) ([4]; Toluene): 18.3 mg/mL (≈ 46.3 mM) | Solubility (mmol) ([4]; Toluene): 46 mmol | solubility ([4]; acetone, organic solvent or mixture): > 79.7 mg/mL

CC1CN(Cc2ncccn2)CC1c1nc2c(cnn2C2CCOCC2)c(=O)[nH]1 (stereo not drawn) [A6/A7]
True density (g/cm3), Value [2]: 1.29 g/cm3 | Brittle fracture index, Rating [3]: Low | Brittle fracture index, Value [3]: 0.022 | Brittle/viscoelastic bonding index (x105), Value [3]: 5.3 | Brittle/viscoelastic bonding index, Rating [3]: Poor | Compression stress (MPa), Value [3]: 56.3 MPa | Compression stress, Rating [3]: Moderate | Compromised Tensile strength (MPa), Value [3]: 0.393 MPa | Dynamic indentation hardness (MPa), Value [3]: 41.6 MPa | Dynamic indentation hardness [ductility rating], Rating [3]: Very high | Solid fraction, Value [3]: 0.85 | Tensile strength (MPa), Value [3]: 0.41 MPa | Tensile strength, Rating [3]: Low

CC1CN(Cc2ncccn2)CC1c1nc2c(cnn2C2CCOCC2)c(=O)[nH]1 (stereo not drawn) [A8]
Particle size D[4, 3] [1]: 48.6 μm | Particle size D[v, 0.1] [1]: 3.96 µm | Particle size D[v, 0.9] [1]: 118 µm

CC1CN(Cc2ncccn2)CC1c1nc2c(cnn2C2CCOCC2)c(=O)[nH]1 (stereo not drawn) [A3]
True density (g/cm3), Value [2]: 1.29 g/cm3 | Brittle fracture index, Rating [3]: Low | Brittle fracture index, Value [3]: 0.139 | Brittle/viscoelastic bonding index (x105), Value [3]: 8.44 | Brittle/viscoelastic bonding index, Rating [3]: Marginal | Compression stress (MPa), Value [3]: 67.9 MPa | Compression stress, Rating [3]: Moderate | Compromised Tensile strength (MPa), Value [3]: 0.488 MPa | Solid fraction, Value [3]: 0.857 | Tensile strength (MPa), Value [3]: 0.624 MPa | Tensile strength, Rating [3]: Moderate | Particle size D[4, 3] [1]: 60.2 μm | Particle size D[v, 0.1] [1]: 10.5 µm | Particle size D[v, 0.9] [1]: 126 µm
